Results: patent US20060142239A1, “Potassium or sodium salt of (-)-2-(4-hydroxyphenyl)ethyl!-thio-3-'4-{4-'(methzlsulfonzl)oxy !phenoxy}phenyl!propanoic acid and their use in medicine” (priority 2003, published 2006)

What was measured:
SC LS-174T tumours = assay: Human LS-174T colon tumour xenografts in Nude mice, tumour growth delay; assay type: in vivo; conditions: ZD6126 200 mg/kg IP, 5-FU 75 mg/kg IV, CPT-11 25 mg/kg IV; for MEDIAN TIME TO REACH TUMOUR SIZE OF 2 CM^3: SC LS-174T xenografts in Nude mice, weekly x3 (Days 1, 8, 15), in combinations ZD6126 2 hours after the other agent; for T - C (DAYS), tumour growth delay: difference in median time to reach 2 cm^3, treatment vs vehicle control, weekly x3
Experimental: Human LS-174T Colon Tumour Xenografts in Nude Mice […] Mice were randomised into 6 groups of 15-18 mice per group. Group 1—control Group 2—received 3 weekly intraperitoneal (IP) injections of ZD6126 at 200 mg/kg on Days 1, 8 and 15 Group 3—received 3 weekly intravenous (IV) injections of 5-FU at 75 mg/kg on Days 1, 8 and 15 Group 4—received 3 weekly IV injections of CPT-11 alone at 25 mg/kg on Days 1, 8 and 15. Group 5—received 3 weekly IP injections of ZD6126 at 200 mg/kg on Days 1, 8 and 15 and 3 weekly IV injections of 5-FU at 75 mg/kg Days 1, 8 and 15. Group 6—received 3 weekly IP injections of ZD6126 at 200 mg/kg on Days 1, 8 and 15 and 3 weekly IV injections of CPT-11 at 25 mg/kg on Days 1, 8 and 15. In groups 5 and 6, when animals received both ZD6126 and CPT-11 or 5-FU on the same day, the ZD6126 was administered 2 hours after the CPT-11 or 5-FU. [table] For all animals, the tumour size was measured twice a week with calipers, and the tumour volume (mm^3) was estimated according to the formula: {[(Square root of Length×Width)×(Length×Width)]×0.5236}. The mice were sacrificed when tumours grew beyond 10% of bodyweight. Treatment efficacy was assessed in terms of the effects on the tumour volumes of treated mice relative to vehicle-treated mice and expressed as growth delay. Growth delay T-(C) was calculated as the difference in the median growth time of the treatment group (T) and the vehicle control group (C) to reach a tumor size of 2 cm^3.

tumour vasculature = conditions: reported in Proc. Am. Assoc. Cancer Res. 2000; 41: 329; cited from earlier work

Compound	MEDIAN TIME TO REACH TUMOUR SIZE OF 2 CM^3 (SC LS-174T tumours)	T - C (DAYS), tumour growth delay (SC LS-174T tumours)	effect on tumour vasculature (tumour vasculature)
O=c1[nH]cc(F)c(=O)[nH]1 [5-FU, 5-fluorouracil]	14 days	5 days	–
CCc1c2c(nc3ccc(OC(=O)N4CCC(N5CCCCC5)CC4)cc13)-c1cc3c(c(=O)n1C2)COC(=O)[C@]3(O)CC [CPT-11, irinotecan]	17 days	8 days	–
COc1cc2c(c(OC)c1OC)-c1ccc(OP(=O)(O)O)cc1[C@@H](NC(C)=O)CC2 [ZD6126, (5S)-5-(acetylamino)-9,10,11-trimethoxy-6,7-dihydro-5H-dibenzo[a,c]cyclohepten-3-yl dihydrogen phosphate]	17 days	8 days	selectively disrupts tumour vasculature leading to vessel occlusion and extensive tumour necrosis
